Columns and labels:
novel receptor = test: Binding of known anticonvulsant compounds to the novel receptor
Excerpt: Alternatively, the binding affinities of non-radio-labelled test compounds may be established by measuring the amount of displacement of a radio-labelled compound which is known to bind to the receptor such as compound (A) and (B) and other compounds mentioned or covered by the aforementioned patents or applications, using conventional techniques.

[1] = molecular target: novel receptor (rat forebrain tissue); test: Radioligand saturation binding to the novel receptor in rat forebrain tissue homogenate; settings: calculated from specific binding over a range of radioligand concentrations, read-out: Kd (dissociation constant)
Protocol: Adult male Wistar rats were killed and brains removed by dissection. Whole forebrain tissue was dissected out and homogenised in a buffered aqueous medium. The homogenised tissue was washed by centrifugation and resuspended in the same buffer. After centrifugation the resuspended tissue was either used fresh or stored frozen for periods of up to 3 months or more before use.
Aliquot of tissue prepared as above at a concentration of 1-10 mg protein/ml were mixed with aliquots of [^3H]-compound A dissolved in buffered medium ([…] HEPES, pH7.4). The final concentration of [^3H] compound A in the mixture was in the range of 20-50 nM. The mixture was incubated at room temperature for about 1 hour. [^3H]-compound A bound to the tissue was then separated from unbound [^3H]-compound A by filtration. This filtration was through Whatman glass fibre filters (GF/B or GF/C). The filters were then washed rapidly with ice-cold buffered medium (50 mM HEPES, pH7.4). The amount of radioactivity bound to the tissue trapped on the filters was measured by addition of liquid scintillation cocktail filters followed by counting in a liquid scintillation counter. […]

Compound | binding to the novel receptor (novel receptor) | Kd [1] [nM]
NC(=O)N1c2ccccc2C=Cc2ccccc21 [carbamazepine] | do not bind | 
CC(=O)c1ccc2c(c1)[C@H](NC(=O)c1ccc(F)cc1)[C@@H](O)C(C)(C)O2 [compound A, trans-(+)-6-Acetyl-4S-(4-fluorobenzolamino)-3,4-dihydro-2,2-dimethyl-2H-1-benzopyran-3R-ol] |  | 40
CN1C(=O)CN=C(c2ccccc2)c2cc(Cl)ccc21 [diazepam] | do not bind | 
CCC1(C)CC(=O)NC1=O (stereo not drawn) [ethosuximide] | do not bind | 
NCC1(CC(=O)O)CCCCC1 [gabapentin] | do not bind | 
Nc1nnc(-c2cccc(Cl)c2Cl)c(N)n1 [lamotrigine] | do not bind | 
CCCC(C)C1(CC)C(=O)NC(=O)NC1=O (stereo not drawn) [pentobarbitone] | do not bind | 
O=C1NC(=O)C(c2ccccc2)(c2ccccc2)N1 [phenytoin] | do not bind | 
C=CC(N)CCC(=O)O (stereo not drawn) [vigabatrin] | do not bind | 

— patent US20010027248A1, “Novel receptor” (SmithKline Beecham p.l.c., priority 1994, published 2001)
